Holding throughout (test): relative viability (nuclei count vs DMSO), 5 days (fraction); higher = more cells survive
Compound in one test: Cc1ccc(C(=O)Nc2ccc(CN3CCN(C)CC3)c(C(F)(F)F)c2)cc1C#Cc1cnc2cccnn12 [Ponatinib]
In a few lines: (§1)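 A plate was accepted only when its control CV was below 25% and the cells had doubled at least once. Viability is defined from nuclear counts as treated wells divided by vehicle wells, with the median taken across plates. That median covers lung cancer cell lines grown in 1536-well plates, dosed by pinning at five √10-spaced library-drug concentrations, and counted in MetaXpress from 4× Hoechst images after 5 days.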

Compound in a further test: Cc1ccc(Nc2nccc(N(C)c3ccc4c(C)n(C)nc4c3)n2)cc1S(N)(=O)=O [Pazopanib]
A digest of the protocol: as §1

Compound in the test “Ponatinib + Alpelisib”: Cc1ccc(C(=O)Nc2ccc(CN3CCN(C)CC3)c(C(F)(F)F)c2)cc1C#Cc1cnc2cccnn12 [Ponatinib] + Cc1nc(NC(=O)N2CCC[C@H]2C(N)=O)sc1-c1ccnc(C(C)(C)C(F)(F)F)c1 [Alpelisib] (partner 2 µM)
In a few lines: (§2)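 Cells from lung cancer lines were seeded into 1536-well plates and, one day later, dosed by pin tool. Treatments were either a single drug or a fixed dose of an anchor drug with five library-drug doses (not always all listed) in √10 steps. After 5 days, nuclei were stained in a one-step fixation (final 0.05% Triton X-100, 1% formaldehyde, 1 ug/ml Hoechst) and counted on 4× images, and relative viability is the treated-to-vehicle nuclei ratio, as the median of duplicate plates.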

Compound in the test “Pazopanib + Pemetrexed”: Cc1ccc(Nc2nccc(N(C)c3ccc4c(C)n(C)nc4c3)n2)cc1S(N)(=O)=O [Pazopanib] + Nc1nc2[nH]cc(CCc3ccc(C(=O)N[C@@H](CCC(=O)O)C(=O)O)cc3)c2c(=O)[nH]1 [Pemetrexed] (partner 0.2 µM)
A digest of the protocol:
as §2

Consider eight cell lines from the supplement of paper PMC10307832.

As to EKVX, the relative viability with Ponatinib (0.002 µM) is 0.899; with Ponatinib (0.006325 µM) it was 1.06; with Ponatinib (0.06325 µM), 1.24; with Ponatinib (0.2 µM) it was 1.06; in the test with Pazopanib (0.01 µM), 0.902; with Pazopanib (0.03162 µM), 0.989. In addition, the relative viability in the test with Pazopanib (0.1 µM) worked out at 0.964; with Pazopanib (0.3162 µM), 1.06; with Pazopanib (1 µM), 1.03; with Ponatinib + Alpelisib (first compound 0.002 µM), 0.805; with Ponatinib + Alpelisib (first compound 0.006325 µM), 0.936; with Ponatinib + Alpelisib (first compound 0.06325 µM), 1.15. Besides, the relative viability is 0.898 in the test with Ponatinib + Alpelisib (first compound 0.2 µM); 0.37 with Pazopanib + Pemetrexed (first compound 0.01 µM); 0.403 in the test with Pazopanib + Pemetrexed (first compound 0.03162 µM); 0.377 with Pazopanib + Pemetrexed (first compound 0.1 µM); 0.35 with Pazopanib + Pemetrexed (first compound 0.3162 µM); 0.361 with Pazopanib + Pemetrexed (first compound 1 µM).

For EMC-BAC-2, the relative viability in the test with Ponatinib (0.002 µM) came to 0.821; with Ponatinib (0.006325 µM), 0.973; with Ponatinib (0.06325 µM) it was 1.04; in the test with Ponatinib (0.2 µM) it was 0.822; with Pazopanib (0.03162 µM), 0.977; in the test with Pazopanib (0.1 µM) it was 0.93. In addition, the relative viability worked out at 1.03 with Pazopanib (0.3162 µM); 1.04 with Pazopanib (1 µM); 0.695 with Ponatinib + Alpelisib (first compound 0.002 µM); 0.707 with Ponatinib + Alpelisib (first compound 0.006325 µM); 0.82 with Ponatinib + Alpelisib (first compound 0.06325 µM); 0.721 in the test with Ponatinib + Alpelisib (first compound 0.2 µM). Moreover, the relative viability with Pazopanib + Pemetrexed (first compound 0.03162 µM) is 0.456; in the test with Pazopanib + Pemetrexed (first compound 0.1 µM), 0.384; with Pazopanib + Pemetrexed (first compound 0.3162 µM), 0.434; with Pazopanib + Pemetrexed (first compound 1 µM) it was 0.425.

For the cell line EPLC-272H, the relative viability in the test with Ponatinib (0.002 µM) is 0.818; with Ponatinib (0.006325 µM), 1.01; with Ponatinib (0.06325 µM), 1.14; in the test with Ponatinib (0.2 µM) it was 0.801; with Pazopanib (0.01 µM), 0.706; in the test with Pazopanib (0.03162 µM), 0.919. Further, the relative viability turned out to be 0.962 in the test with Pazopanib (0.1 µM); 1.07 in the test with Pazopanib (0.3162 µM); 0.92 with Pazopanib (1 µM); 0.781 with Ponatinib + Alpelisib (first compound 0.002 µM); 1.12 with Ponatinib + Alpelisib (first compound 0.006325 µM); 1.12 with Ponatinib + Alpelisib (first compound 0.06325 µM). For the same cell line, the relative viability in the test with Ponatinib + Alpelisib (first compound 0.2 µM) turned out to be 0.942; in the test with Pazopanib + Pemetrexed (first compound 0.01 µM) it was 0.313; in the test with Pazopanib + Pemetrexed (first compound 0.03162 µM), 0.461; with Pazopanib + Pemetrexed (first compound 0.1 µM), 0.318; with Pazopanib + Pemetrexed (first compound 0.3162 µM), 0.332; with Pazopanib + Pemetrexed (first compound 1 µM), 0.353.

As for H3255, the relative viability with Ponatinib (0.002 µM) worked out at 0.867; in the test with Ponatinib (0.006325 µM) it was 0.97; with Ponatinib (0.06325 µM) it was 0.984; in the test with Ponatinib (0.2 µM), 0.908; in the test with Pazopanib (0.01 µM), 0.925; in the test with Pazopanib (0.03162 µM) it was 0.965. In addition, the relative viability turned out to be 0.869 with Pazopanib (0.1 µM); 0.998 with Pazopanib (0.3162 µM); 1.01 in the test with Pazopanib (1 µM); 0.641 with Ponatinib + Alpelisib (first compound 0.002 µM); 0.697 with Ponatinib + Alpelisib (first compound 0.006325 µM); 0.743 with Ponatinib + Alpelisib (first compound 0.06325 µM). The relative viability with Ponatinib + Alpelisib (first compound 0.2 µM) was found to be 0.688; with Pazopanib + Pemetrexed (first compound 0.01 µM), 0.549; with Pazopanib + Pemetrexed (first compound 0.03162 µM), 0.585; with Pazopanib + Pemetrexed (first compound 0.1 µM), 0.581; with Pazopanib + Pemetrexed (first compound 0.3162 µM), 0.569; with Pazopanib + Pemetrexed (first compound 1 µM), 0.583.

On to HARA, for which the relative viability stood at 0.844 with Ponatinib (0.002 µM); 0.972 with Ponatinib (0.006325 µM); 0.938 in the test with Ponatinib (0.06325 µM); 0.914 with Ponatinib (0.2 µM); 0.957 in the test with Pazopanib (0.01 µM); 0.978 with Pazopanib (0.03162 µM). The relative viability is 1 in the test with Pazopanib (0.1 µM); 1.04 with Pazopanib (0.3162 µM); 1.03 in the test with Pazopanib (1 µM); 0.779 with Ponatinib + Alpelisib (first compound 0.002 µM); 0.79 with Ponatinib + Alpelisib (first compound 0.006325 µM); 0.97 in the test with Ponatinib + Alpelisib (first compound 0.06325 µM). Also, the relative viability with Ponatinib + Alpelisib (first compound 0.2 µM) is 0.729; with Pazopanib + Pemetrexed (first compound 0.01 µM) it was 0.245; in the test with Pazopanib + Pemetrexed (first compound 0.03162 µM), 0.244; with Pazopanib + Pemetrexed (first compound 0.1 µM), 0.242; with Pazopanib + Pemetrexed (first compound 0.3162 µM) it was 0.207; in the test with Pazopanib + Pemetrexed (first compound 1 µM), 0.237.

Turning to HCC-15, the relative viability in the test with Ponatinib (0.002 µM) came out at 0.972; in the test with Ponatinib (0.006325 µM), 1.06; with Ponatinib (0.06325 µM), 1.1; in the test with Ponatinib (0.2 µM) it was 1.02; in the test with Pazopanib (0.01 µM), 0.837; with Pazopanib (0.03162 µM), 0.987. Also, the relative viability with Pazopanib (0.1 µM) is 1.02; with Pazopanib (0.3162 µM) it was 1.06; in the test with Pazopanib (1 µM), 1.03; with Ponatinib + Alpelisib (first compound 0.002 µM), 0.82; in the test with Ponatinib + Alpelisib (first compound 0.006325 µM) it was 0.906; with Ponatinib + Alpelisib (first compound 0.06325 µM), 0.988. Moreover, the relative viability amounted to 0.805 with Ponatinib + Alpelisib (first compound 0.2 µM); 0.215 with Pazopanib + Pemetrexed (first compound 0.01 µM); 0.226 in the test with Pazopanib + Pemetrexed (first compound 0.03162 µM); 0.223 in the test with Pazopanib + Pemetrexed (first compound 0.1 µM); 0.209 with Pazopanib + Pemetrexed (first compound 0.3162 µM); 0.231 with Pazopanib + Pemetrexed (first compound 1 µM).

As for HCC-44, the relative viability stood at 0.908 with Ponatinib (0.002 µM); 0.929 in the test with Ponatinib (0.006325 µM); 0.942 with Ponatinib (0.06325 µM); 0.958 with Ponatinib (0.2 µM); 0.886 in the test with Pazopanib (0.01 µM); 0.929 with Pazopanib (0.03162 µM). Further, the relative viability came to 0.998 with Pazopanib (0.1 µM); 0.983 with Pazopanib (0.3162 µM); 1.02 with Pazopanib (1 µM); 0.802 with Ponatinib + Alpelisib (first compound 0.002 µM); 0.897 with Ponatinib + Alpelisib (first compound 0.006325 µM); 0.92 with Ponatinib + Alpelisib (first compound 0.06325 µM). Further, the relative viability worked out at 0.794 with Ponatinib + Alpelisib (first compound 0.2 µM); 0.697 in the test with Pazopanib + Pemetrexed (first compound 0.01 µM); 0.637 in the test with Pazopanib + Pemetrexed (first compound 0.03162 µM); 0.605 with Pazopanib + Pemetrexed (first compound 0.1 µM); 0.62 with Pazopanib + Pemetrexed (first compound 0.3162 µM); 0.616 in the test with Pazopanib + Pemetrexed (first compound 1 µM).

In the case of HCC-78, the relative viability worked out at 0.8 with Ponatinib (0.002 µM); 0.994 with Ponatinib (0.006325 µM); 1.03 with Ponatinib (0.06325 µM); 0.874 in the test with Ponatinib (0.2 µM); 0.743 in the test with Pazopanib (0.01 µM); 1 in the test with Pazopanib (0.03162 µM). Moreover, the relative viability with Pazopanib (0.1 µM) turned out to be 0.889; in the test with Pazopanib (0.3162 µM), 0.933; with Pazopanib (1 µM), 0.936; with Ponatinib + Alpelisib (first compound 0.002 µM), 0.321; with Ponatinib + Alpelisib (first compound 0.006325 µM) it was 0.301; with Ponatinib + Alpelisib (first compound 0.06325 µM), 0.408. The relative viability with Ponatinib + Alpelisib (first compound 0.2 µM) was 0.323; in the test with Pazopanib + Pemetrexed (first compound 0.03162 µM), 0.934; with Pazopanib + Pemetrexed (first compound 0.1 µM) it was 0.899; with Pazopanib + Pemetrexed (first compound 0.3162 µM), 0.839; in the test with Pazopanib + Pemetrexed (first compound 1 µM), 0.927.
